# Columns and labels:
# [1] = molecular target: T1, recombinant human DHODH (Homo sapiens, UniProt Q02127); experiment: DHODH enzyme reaction inhibition test (DCIP-coupled assay); format: biochemical; details: recombinant human DHODH 0.175 μg/mL, DCIP absorbance 600 nm, 50 minutes, pH 8.0; read-out: Enzyme reaction inhibitory effect (IC50)
# T1 construct: DHODH, 31-395aa, Human, His tag, E. coli, ATGP1615; His tag; purchased ATGen Co. Ltd. ATGP1615; host or cells: E. coli
# Method: The DHODH enzyme assay was carried out with reference to “Benjamin Bader, Wolfgang Knecht, Markus Fries, and Monika Loffler, Expression, Purification, and Characterization of Histidine-Tagged Rat and Human Flavoenzyme Dihydroorotate Dehydrogenase, Protein Expression and Purification, 1998, 13, 414-422.”
# The DHODH activity was evaluated using an enzyme assay system that is coupled with an assay in which a blue coloring agent 2,6-dichlorophenolindophenol (DCIP, available from MP Biomedicals, LLC, MP150118) is quenched. Purified recombinant human DHODH (DHODH, 31-395aa, Human, His tag, E. coli, ATGP1615) was purchased from ATGen Co. Ltd. The enzyme assay was carried out in a 384-well plate using a buffer solution containing 100 mmol/L Hepes (available from Dojindo Laboratories, 342-01375), 400 mmol/L NaCl (available from FUJIFILM Wako Pure Chemical Corporation, 191-01665), 10% Glycerol (available from FUJIFILM Wako Pure Chemical Corporation, 075-00616), 0.05% Triton X-100 (available from Sigma-Aldrich Co., LLC, T8787-100ML), 0.2 mmol/L Ubiquinone-10 (available from FUJIFILM Wako Pure Chemical Corporation, 216-00761), 0.1 mmol/L DHO (L-dihydroorotic acid, available from Sigma-Aldrich Co., LLC, D7128), 0.5% DMSO (dimethylsulfoxide, available from FUJIFILM Wako Pure Chemical Corporation, 047-29353), 0.175 μg/mL DHODH, and 0.12 mmol/L DCIP and having a pH adjusted to 8.0 by adding 5 mol/L potassium hydroxide (available from FUJIFILM Wako Pure Chemical Corporation, 168-21815). A test compound with a predetermined concentration was added using Biomek NX (available from Beckman Coulter Inc.), and the enzyme reaction was started by adding the substrate. The enzyme activity was assessed by measuring the decrease in DCIP absorbance (600 nm) for 50 minutes using an EnVision plate-reading spectrophotometer (available from PerkinElmer, Inc.).
# The enzyme reaction inhibition rate at each test compound concentration was determined, and the 50% enzyme reaction inhibition concentration [IC50 (nmol/L)] was calculated using XLfit. Enzyme reaction inhibition rate (%)=(amount of luminescence in test compound-added well)/(amount of luminescence in DMSO-added well)×100
# The abbreviations in the table have the following meanings. • A: IC50 value<10 nmol/L • B: 10 nmol/L≤IC50 value<100 nmol/L • C: 100 nmol/L≤IC50 value
# [2] = system: human myeloid leukemia cell line HL60; experiment: Cell growth test, HL60 (CellTiter-Glo); format: cell-based; details: HL-60, 72 h, HL60 cells, 3 days, CellTiter-Glo luminescence, read-out: Cell growth inhibitory effect (GI50)
# Method: The cell growth test was carried out using the human myeloid leukemia cell line HL60 (available from ATCC, CRL-240). As a culture medium of HL60 cells, RPMI 1640 (available from FUJIFILM Wako Pure Chemical Corporation, 189-02025) supplemented with 10% fetal bovine serum (available from Thermo Fisher Scientific, Inc., 10437-028), and 1% penicillin-streptomycin (10,000 U/mL, available from Thermo Fisher Scientific, Inc., 15140-122) was used. HL60 cells were seeded on a 384-well plate (available from Corning Inc., 4588) at a cell density of 1×10^3 cells/20 μL/well. After culturing overnight, 5 μL of the test compound having a predetermined concentration was added, and 3 days later, 25 μL of CellTiter-Glo (registered trademark) Luminescent Cell Viability Assay (available from Promega Corporation, G7573) was added, and then the amount of luminescence was measured using an EnVision plate reader (available from PerkinElmer, Inc.). Since the amount of luminescence is proportional to the intracellular concentration of adenosine triphosphate (ATP), the amount of luminescence was used as an indicator of the number of viable cells. The growth inhibitory concentration for each test compound concentration was calculated by the following expression.
# The growth inhibition rate at each test compound concentration was determined, and the 50% growth inhibitory concentration [GI50 (nmol/L)] was calculated using XLfit. Growth inhibition rate (%)=(amount of luminescence in test compound-added well)/(amount of luminescence in DMSO-added well)×100
# The abbreviations in the table have the following meanings. • A: GI50 value<100 nmol/L • B: 100 nmol/L≤GI50 value<1,000 nmol/L • C: 1,000 nmol/L≤GI50 value
# T1 sequence (Q02127 31-395): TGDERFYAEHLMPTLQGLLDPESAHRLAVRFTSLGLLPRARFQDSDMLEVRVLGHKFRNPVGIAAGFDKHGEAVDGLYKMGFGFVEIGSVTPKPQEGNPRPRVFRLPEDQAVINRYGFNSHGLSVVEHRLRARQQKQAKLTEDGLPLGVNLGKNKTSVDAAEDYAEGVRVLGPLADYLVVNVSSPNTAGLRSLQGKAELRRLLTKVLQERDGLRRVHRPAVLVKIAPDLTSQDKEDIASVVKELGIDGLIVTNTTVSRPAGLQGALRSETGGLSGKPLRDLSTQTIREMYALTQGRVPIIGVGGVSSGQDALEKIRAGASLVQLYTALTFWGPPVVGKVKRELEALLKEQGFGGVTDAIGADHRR
Compound,IC50 [1] [nM],GI50 [2] [nM]
CCOc1c(Nc2ncc(C3CC3)cc2C(=O)O)ccc(F)c1C1=CCOCC1 [Example 2-15],< 10,< 100
O=C(O)c1cc(C2CC2)ncc1Nc1cccc(C2=CCOCC2)c1OCC(F)(F)F [Example 2-16],< 10,100 to 1000
N#CNC(=O)c1nc(C2CC2)cnc1Nc1cccc(C2=CCOCC2)c1OCC(F)(F)F [Example 3-1],< 10,< 100
N#CNC(=O)c1cc(C2CC2)ccc1Nc1cncc(C2=CCOCC2)c1OCC(F)(F)F [Example 3-2],< 10,≥ 1000
CONC(=O)c1nc(C2CC2)cnc1Nc1cccc(C2=CCOCC2)c1OCC(F)(F)F [Example 3-5],< 10,< 100
N#CNC(=O)c1cc(C2CC2)cnc1Nc1cccc(C2CCOCC2)c1OCC(F)(F)F [Example 3-6],< 10,< 100
C[C@H](Oc1c(Nc2ncc(C3CC3)nc2C(=O)NS(N)(=O)=O)cccc1C1CCOCC1)C(F)(F)F [Example 3-7],< 10,100 to 1000
NS(=O)(=O)NC(=O)c1nc(C2CC2)cnc1Nc1cccc(C2=CCOCC2)c1OCC(F)(F)F [Example 3-10],< 10,< 100
CN(C)S(=O)(=O)NC(=O)c1nc(C2CC2)cnc1Nc1cccc(C2=CCOCC2)c1OCC(F)(F)F [Example 3-11],≥ 100,≥ 1000
CONC(=O)c1nc(C2CC2)cnc1Nc1cccc(C2CCOCC2)c1O[C@@H](C)C(F)(F)F [Example 3-12],10 to 100,100 to 1000
C[C@H](Oc1c(Nc2ncc(C3CC3)nc2C(=O)NS(C)(=O)=O)cccc1C1CCOCC1)C(F)(F)F [Example 3-13],10 to 100,100 to 1000
C[C@H](Oc1c(Nc2ncc(C3CC3)nc2C(=O)NC#N)cccc1C1CCOCC1)C(F)(F)F [Example 3-14],< 10,< 100
Cc1ccc(-c2cccc(Nc3ncc(C4CC4)nc3C(=O)NS(C)(=O)=O)c2OCC(F)(F)F)c(C)n1 [Example 3-15],10 to 100,100 to 1000
Cc1cc(C#N)ccc1-c1cccc(Nc2ncc(C3CC3)nc2C(=O)NS(C)(=O)=O)c1OCC(F)(F)F [Example 3-16],< 10,< 100
CCS(=O)(=O)NC(=O)c1nc(C2CC2)cnc1Nc1cccc(C2=CCOCC2)c1OCC(F)(F)F [Example 3-17],10 to 100,≥ 1000
O=C(NS(=O)(=O)C(F)(F)F)c1nc(C2CC2)cnc1Nc1cccc(C2=CCOCC2)c1OCC(F)(F)F [Example 3-18],10 to 100,≥ 1000
COS(=O)(=O)NC(=O)c1nc(C2CC2)cnc1Nc1cccc(C2=CCOCC2)c1OCC(F)(F)F [Example 3-19],10 to 100,100 to 1000
CNS(=O)(=O)NC(=O)c1nc(C2CC2)cnc1Nc1cccc(C2=CCOCC2)c1OCC(F)(F)F [Example 3-20],10 to 100,100 to 1000
O=C(NS(=O)(=O)C1CC1)c1nc(C2CC2)cnc1Nc1cccc(C2=CCOCC2)c1OCC(F)(F)F [Example 3-21],10 to 100,≥ 1000
CS(=O)(=O)NC(=O)c1nc(C2CC2)cnc1Nc1cccc(-c2ccc(C#N)cc2)c1OCC(F)(F)F [Example 3-23],< 10,< 100
CS(=O)(=O)NC(=O)c1cc(C2CC2)cnc1Nc1cccc(C2=CCOCC2)c1OCC(F)(F)F [Example 3-24],< 10,< 100
C[C@H](Oc1c(Nc2ccc(C3CC3)cc2C(=O)NS(C)(=O)=O)cncc1C1=CCOCC1)C(F)(F)F [Example 3-25],10 to 100,100 to 1000

Compound,IC50 [1] [nM],GI50 [2] [nM]
CCCc1c(Nc2ncc(C3CC3)nc2C(=O)NS(N)(=O)=O)cccc1C1CCOCC1 [Example 3-26],< 10,< 100
C[C@H](Oc1c(Nc2ncc(C3CC3)nc2C(=O)NS(N)(=O)=O)cccc1C1=CCOCC1)C(F)(F)F [Example 3-27],< 10,< 100
N#CNC(=O)c1nc(C2CC2)cnc1Nc1cccc(C2CCOCC2)c1OCC(F)(F)F [Example 3-29],< 10,< 100
C[C@H](Oc1c(Nc2ncc(C3CC3)nc2C(=O)NC#N)cccc1C1=CCOCC1)C(F)(F)F [Example 3-31],< 10,< 100
C[C@H](Oc1c(Nc2ncc(C3CC3)nc2C(=O)NS(C)(=O)=O)cccc1C1=CCOCC1)C(F)(F)F [Example 3-32],< 10,< 100
N#CNC(=O)c1nc(C2CC2)cnc1Nc1cccc(-c2ccc(C#N)cc2)c1OCC(F)(F)F [Example 3-33],< 10,< 100
CS(=O)(=O)NC(=O)c1cc(C2CC2)cnc1Nc1cccc(C2CCOCC2)c1OCC(F)(F)F [Example 3-34],< 10,< 100
NS(=O)(=O)NC(=O)c1cc(C2CC2)cnc1Nc1cccc(C2CCOCC2)c1OCC(F)(F)F [Example 3-35],< 10,< 100
CS(=O)(=O)NC(=O)c1cc(C2CC2)cnc1Nc1cccc(-c2ccc(C#N)cc2)c1OCC(F)(F)F [Example 3-36],< 10,< 100
N#Cc1ccc(-c2cccc(Nc3ncc(C4CC4)cc3C(=O)NS(N)(=O)=O)c2OCC(F)(F)F)cc1 [Example 3-37],< 10,< 100
N#CNC(=O)c1nc(C2CC2)cnc1Nc1cc(F)cc(C2=CCOCC2)c1OCC(F)(F)F [Example 3-38],< 10,< 100
N#CNC(=O)c1cc(C2CC2)cnc1Nc1cccc(-c2ccc(C#N)cc2)c1OCC(F)(F)F [Example 3-39],< 10,< 100
CS(=O)(=O)NC(=O)c1cc(C2CC2)cnc1Nc1cc(F)cc(C2CCOCC2)c1OCC(F)(F)F [Example 3-42],< 10,< 100
CS(=O)(=O)NC(=O)c1nc(C2CC2)cnc1Nc1cccc(-c2cccc(C#N)c2)c1OCC(F)(F)F [Example 3-45],< 10,< 100
CCc1c(Nc2ncc(C3CC3)cc2C(=O)NS(C)(=O)=O)cccc1C1CCOCC1 [Example 3-47],< 10,100 to 1000
CCc1c(Nc2ncc(C3CC3)nc2C(=O)NS(C)(=O)=O)cccc1C1CCOCC1 [Example 3-48],10 to 100,100 to 1000
CS(=O)(=O)NC(=O)c1nc(C2CC2)cnc1Nc1cccc(C2CCOCC2)c1OC(F)F [Example 3-49],< 10,< 100
NS(=O)(=O)NC(=O)c1nc(C2CC2)cnc1Nc1cccc(C2CCOCC2)c1OC(F)F [Example 3-50],< 10,< 100
CS(=O)(=O)NC(=O)c1nc(C2CC2)cnc1Nc1cccc(-c2ccc(C#N)cc2)c1OC(F)F [Example 3-51],< 10,100 to 1000
N#Cc1ccc(-c2cccc(Nc3ncc(C4CC4)nc3C(=O)NS(N)(=O)=O)c2OC(F)F)cc1 [Example 3-52],10 to 100,100 to 1000
NS(=O)(=O)NC(=O)c1nc(C2CC2)cnc1Nc1cc(F)cc(C2CCOCC2)c1OC(F)F [Example 3-53],< 10,< 100
